Test results from patent US9855203B2, “Preserving personal care compositions” (The Procter & Gamble Company, priority 2013, dated 2018).

assay: Log water solubility of preservatives; details: logarithm base 10 of molar solubility at 25° C.; from experimental solubility or Chemsilico CS log WSo-3.0

SMILES	Log (water Solubility in mol/L) [mol/L]
O=C(O)c1ccccc1O [Salicylic acid]	−1.41
C=CCCCCCCCCC(=O)O [Undecylenic Acid]	−3.15
OCc1ccccc1 [benzyl Alcohol]	−0.47
CCCCCCC(O)CO (stereo not shown) [caprylyl glycol]	−3.08
CCOC(=O)c1ccc(O)cc1 [ethyl paraben]	−1.91
OCCc1ccccc1 [phenethyl alcohol]	−0.83
C/C=C/C=C/C(=O)O [sorbic acid]	−0.33
